{
  "source": "patent US20190343908A1",
  "about": "“Therapeutic Combination for the Treatment of Cancer” (Nerium Biotechnology Inc., priority 2011, published 2019)",
  "key": {"[1]": {"test_system": "PANC-1 pancreatic cancer cell line", "assay": "Crystal Violet viability assay, PANC-1", "assay_type": "cell-based, human", "details": "for ABSORBANCE: 0.1 μg/mL cisplatin; for CVE 24 h / CVE 48 h / CVE 72 h: Run 1 average", "from_the_text": "Three different viability assays were chosen to complement each other and yielded results dependent on concentration and cell line: the Methyl Tetrazolium dye assay, the Sulforhodamine B fluorescent dye assay, and the Crystal Violet dye assay.\n(§1) The Sulforhodamine B and Crystal Violet assays provide information about protein and were used to complement the Methyl-Tetrazolium dye assay. […] It is used for the quantification of cellular proteins of cultured cells. The assay using Crystal Violet, a dye that binds electrostatically to proteins and stains DNA, provides a reliable, simple assay for measuring viability of cells.\n(§2) The Methyl Tetrazolium, Sulforhodamine B, and Crystal Violet assays were used to assess cell viabilities. The incubation times were 24 hours, 48 hours, and 72 hours. The Nerium oleander extract Anvirzel™ (a hot water extract of oleander obtained from Salud Integral, Honduras) was tested in concentrations ranging from 0.01 ng/mL to 10 ng/mL.\n(§3) Cells were detached by trypsinization (Trypsin-0.25% EDTA, Invitrogen, 25200-072) during the logarithmic phase of culture growth and plated in 96-well plates (18.000 cells/well) (Corning, Costar 359) in a final volume of 200 μl of medium per well. […] The absorbance was measured after 24 hours, 48 hours, and 72 hours of incubation.\nFor the Crystal Violet assay, the medium was removed from the 96-well plates, the plates rinsed with PBS (Sigma, P3813) and then the cells were […] by the addition of 10% formalin (MERCK, 1.04003.2500) for 20 minutes at RT. Formalin was removed and 0.25% aqueous crystal violet (Sigma, HT901), dissolved in water, was added for 10 minutes at RT. Unbound Crystal Violet was rinsed by washing with water and finally 33% acetic acid was added to dissolve the dye.\n(§4) The optical density of each plate was measured on a μQuant spectrophotometer and the data were analyzed with Gen5 software (μQuant Biomolecular Spectrophotometer MQX200 and Gen5™ Microplate Data Collection & Analysis software, BioTek® Instruments. Inc, April 2008). Absorbance was measured at 570 nm for all assays and a second wavelength was measured in order to subtract noise. For the Methyl-Tetrazolium assay this second wavelength was 630 nm and for the Sulforhodamine B and Crystal Violet assays it was 690 nm."}, "[2]": {"test_system": "MDA-MB 231 (human breast cancer)", "assay": "Crystal Violet viability assay, MDA-MB 231", "assay_type": "cell-based", "details": "for CVE 24 h / CVE 48 h / CVE 72 h: Run 3 average", "from_the_text": "as §1, §2, §3\n[…] Formalin was removed and 0.25% aqueous crystal violet (Sigma, HT901), dissolved in water, was added for 10 minutes at RT. Unbound Crystal Violet was rinsed by washing with water and finally 33% acetic acid was added to dissolve the dye.\nas §4"}},
  "data": [
    {"compound": "N.N.[Cl][Pt][Cl]", "note": "[cisplatin]", "values": [
      {"measurement": "ABSORBANCE", "setting": "[1]; PANC-1, 48 h", "value": 0.753},
      {"measurement": "ABSORBANCE", "setting": "[1]; PANC-1, 72 h", "value": 0.872},
      {"measurement": "Average CVE", "setting": "[1]; PANC-1, Run 2, 24 h, 0.1 μg/ml CDDP", "value": 0.793},
      {"measurement": "Average CVE", "setting": "[1]; PANC-1, Run 2, 24 h, 1 μg/ml CDDP", "value": 0.456},
      {"measurement": "Average CVE", "setting": "[1]; PANC-1, Run 2, 24 h, 10 μg/ml CDDP", "value": 0.602},
      {"measurement": "Average CVE", "setting": "[1]; PANC-1, Run 2, 24 h, 100 μg/ml CDDP", "value": 0.345},
      {"measurement": "Average CVE", "setting": "[1]; PANC-1, Run 2, 48 h, 0.1 μg/ml CDDP", "value": 0.575},
      {"measurement": "Average CVE", "setting": "[1]; PANC-1, Run 2, 48 h, 1 μg/ml CDDP", "value": 0.249},
      {"measurement": "Average CVE", "setting": "[1]; PANC-1, Run 2, 48 h, 10 μg/ml CDDP", "value": 0.33},
      {"measurement": "Average CVE", "setting": "[1]; PANC-1, Run 2, 48 h, 100 μg/ml CDDP", "value": 0.323},
      {"measurement": "Average CVE", "setting": "[1]; PANC-1, Run 2, 72 h, 0.1 μg/ml CDDP", "value": 0.839},
      {"measurement": "Average CVE", "setting": "[1]; PANC-1, Run 2, 72 h, 1 μg/ml CDDP", "value": 0.514},
      {"measurement": "Average CVE", "setting": "[1]; PANC-1, Run 2, 72 h, 10 μg/ml CDDP", "value": 0.49},
      {"measurement": "Average CVE", "setting": "[1]; PANC-1, Run 2, 72 h, 100 μg/ml CDDP", "value": 0.385},
      {"measurement": "Average CVE", "setting": "[1]; PANC-1, Run 3, 24 h, 0.1 μg/ml CDDP", "value": 0.476},
      {"measurement": "Average CVE", "setting": "[1]; PANC-1, Run 3, 24 h, 1 μg/ml CDDP", "value": 0.457},
      {"measurement": "Average CVE", "setting": "[1]; PANC-1, Run 3, 24 h, 10 μg/ml CDDP", "value": 0.698},
      {"measurement": "Average CVE", "setting": "[1]; PANC-1, Run 3, 24 h, 100 μg/ml CDDP", "value": 0.428},
      {"measurement": "Average CVE", "setting": "[1]; PANC-1, Run 3, 48 h, 0.1 μg/ml CDDP", "value": 0.753},
      {"measurement": "Average CVE", "setting": "[1]; PANC-1, Run 3, 48 h, 1 μg/ml CDDP", "value": 0.395},
      {"measurement": "Average CVE", "setting": "[1]; PANC-1, Run 3, 48 h, 10 μg/ml CDDP", "value": 0.218},
      {"measurement": "Average CVE", "setting": "[1]; PANC-1, Run 3, 48 h, 100 μg/ml CDDP", "value": 0.18},
      {"measurement": "Average CVE", "setting": "[1]; PANC-1, Run 3, 72 h, 0.1 μg/ml CDDP", "value": 0.872},
      {"measurement": "Average CVE", "setting": "[1]; PANC-1, Run 3, 72 h, 1 μg/ml CDDP", "value": 0.358},
      {"measurement": "Average CVE", "setting": "[1]; PANC-1, Run 3, 72 h, 10 μg/ml CDDP", "value": 0.421},
      {"measurement": "Average CVE", "setting": "[1]; PANC-1, Run 3, 72 h, 100 μg/ml CDDP", "value": 0.253},
      {"measurement": "CVE 24 h", "setting": "[1]; 0.1 μg/ml CDDP", "value": 0.324},
      {"measurement": "CVE 48 h", "setting": "[1]; 0.1 μg/ml CDDP", "value": 0.717},
      {"measurement": "CVE 72 h", "setting": "[1]; 0.1 μg/ml CDDP", "value": 0.676},
      {"measurement": "CVE 24 h", "setting": "[1]; 1 μg/ml CDDP", "value": 0.125},
      {"measurement": "CVE 48 h", "setting": "[1]; 1 μg/ml CDDP", "value": 0.429},
      {"measurement": "CVE 72 h", "setting": "[1]; 1 μg/ml CDDP", "value": 0.262},
      {"measurement": "CVE 24 h", "setting": "[1]; 10 μg/ml CDDP", "value": 0.191},
      {"measurement": "CVE 48 h", "setting": "[1]; 10 μg/ml CDDP", "value": 0.466},
      {"measurement": "CVE 72 h", "setting": "[1]; 10 μg/ml CDDP", "value": 0.337},
      {"measurement": "CVE 24 h", "setting": "[1]; 100 μg/ml CDDP", "value": 0.153},
      {"measurement": "CVE 48 h", "setting": "[1]; 100 μg/ml CDDP", "value": 0.381},
      {"measurement": "CVE 72 h", "setting": "[1]; 100 μg/ml CDDP", "value": 0.28},
      {"measurement": "CVE 24 h Average", "setting": "[2]; Run 1, 0.1 μg/ml CDDP", "value": 0.161},
      {"measurement": "CVE 48 h Average", "setting": "[2]; Run 1, 0.1 μg/ml CDDP", "value": 0.939},
      {"measurement": "CVE 72 h Average", "setting": "[2]; Run 1, 0.1 μg/ml CDDP", "value": 0.768},
      {"measurement": "CVE 24 h Average", "setting": "[2]; Run 1, 1 μg/ml CDDP", "value": 0.124},
      {"measurement": "CVE 48 h Average", "setting": "[2]; Run 1, 1 μg/ml CDDP", "value": 0.549},
      {"measurement": "CVE 72 h Average", "setting": "[2]; Run 1, 1 μg/ml CDDP", "value": 0.375},
      {"measurement": "CVE 48 h Average", "setting": "[2]; Run 1, 10 μg/ml CDDP", "value": 0.586},
      {"measurement": "CVE 72 h Average", "setting": "[2]; Run 1, 10 μg/ml CDDP", "value": 0.416},
      {"measurement": "CVE 24 h Average", "setting": "[2]; Run 1, 100 μg/ml CDDP", "value": 0.098},
      {"measurement": "CVE 48 h Average", "setting": "[2]; Run 1, 100 μg/ml CDDP", "value": 0.504},
      {"measurement": "CVE 72 h Average", "setting": "[2]; Run 1, 100 μg/ml CDDP", "value": 0.538},
      {"measurement": "CVE 24 h Average", "setting": "[2]; Run 2, 0.1 μg/ml CDDP", "value": 0.118},
      {"measurement": "CVE 48 h Average", "setting": "[2]; Run 2, 0.1 μg/ml CDDP", "value": 0.305},
      {"measurement": "CVE 72 h Average", "setting": "[2]; Run 2, 0.1 μg/ml CDDP", "value": 0.485},
      {"measurement": "CVE 24 h Average", "setting": "[2]; Run 2, 1 μg/ml CDDP", "value": 0.042},
      {"measurement": "CVE 48 h Average", "setting": "[2]; Run 2, 1 μg/ml CDDP", "value": 0.047},
      {"measurement": "CVE 72 h Average", "setting": "[2]; Run 2, 1 μg/ml CDDP", "value": 0.036},
      {"measurement": "CVE 24 h Average", "setting": "[2]; Run 2, 10 μg/ml CDDP", "value": 0.125},
      {"measurement": "CVE 48 h Average", "setting": "[2]; Run 2, 10 μg/ml CDDP", "value": 0.27},
      {"measurement": "CVE 72 h Average", "setting": "[2]; Run 2, 10 μg/ml CDDP", "value": 0.301},
      {"measurement": "CVE 24 h Average", "setting": "[2]; Run 2, 100 μg/ml CDDP", "value": 0.074},
      {"measurement": "CVE 48 h Average", "setting": "[2]; Run 2, 100 μg/ml CDDP", "value": 0.062},
      {"measurement": "CVE 72 h Average", "setting": "[2]; Run 2, 100 μg/ml CDDP", "value": 0.11},
      {"measurement": "CVE 24 h", "setting": "[2]; 0.1 μg/ml CDDP", "value": 1.198},
      {"measurement": "CVE 48 h", "setting": "[2]; 0.1 μg/ml CDDP", "value": 1.239},
      {"measurement": "CVE 72 h", "setting": "[2]; 0.1 μg/ml CDDP", "value": 1.573},
      {"measurement": "CVE 24 h", "setting": "[2]; 1 μg/ml CDDP", "value": 0.528},
      {"measurement": "CVE 48 h", "setting": "[2]; 1 μg/ml CDDP", "value": 0.231},
      {"measurement": "CVE 72 h", "setting": "[2]; 1 μg/ml CDDP", "value": 0.144},
      {"measurement": "CVE 24 h", "setting": "[2]; 10 μg/ml CDDP", "value": 0.693},
      {"measurement": "CVE 48 h", "setting": "[2]; 10 μg/ml CDDP", "value": 0.79},
      {"measurement": "CVE 72 h", "setting": "[2]; 10 μg/ml CDDP", "value": 0.472},
      {"measurement": "CVE 24 h", "setting": "[2]; 100 μg/ml CDDP", "value": 0.168},
      {"measurement": "CVE 48 h", "setting": "[2]; 100 μg/ml CDDP", "value": 0.154},
      {"measurement": "CVE 72 h", "setting": "[2]; 100 μg/ml CDDP", "value": 0.089}
    ]}
  ]
}
